Test results: patent US20230242669A1, “ANTIBODY THAT BINDS ERBB-2 AND ERBB-3” (Merus N.V., priority 2014, published 2023)

Columns and labels:
[1] = system: HRG mediated phosphorylation in N87 and SKBR-3 cells; assay: Western blot of HRG stimulated cells; assay type: cell-based, human; conditions: 5 nM antibody, 100 ng/ml HRG, 1-24 hours
Protocol: Cells of an exponentially grown culture were harvested and seeded in 10 cm dishes (20×10^6 cells for N87 and 7×10^6 cells for SKBR-3) in starvation medium (N87 cells: RPMI-1640, 0.05% BSA, 10 µg/ml Holo-transferrin; SKBR-3 cells: DMEM/F-12, 2 mM L-glutamine, 0.05% BSA, 10 µg/ml Holo-transferrin). The next day, antibodies were added to a final concentration of 5 nM and cells were incubated for one hour. HRG was then added to a final concentration of 100 ng/ml. After 1, 3, 6 or 24 hours, dishes were placed on ice, cells were washed twice with cold PBS, transferred to Eppendorf tubes and lysed with 250 µl of RIPA lysis buffer (20 mM Tris-HCl pH 7.5, 150 mM NaCl, 1 mM Na2EDTA, 1 mM EGTA, 1% NP-40, 1% sodium deoxycholate, 0.1% SDS, 2.5 mM sodium pyrophosphate, 1 mM beta-glycerophosphate, 1 mM Na3VO4, 1 µg/ml leupeptin). Lysis was allowed to proceed for 30 minutes on ice. Cell lysates were centrifuged and supernatants were collected in new Eppendorf tubes. Protein concentration was determined using the BCA method (Pierce). […] Membranes were blocked for one hour with TBS-T containing 5 % BSA and stained with the indicated antibodies according to the manufacturer’s instructions (Cell Signaling Technology). Membranes were then incubated with a HRP-conjugated secondary antibody, incubated with ECL substrate and subjected to autoradiography using X-ray films (Amersham). […]

[2] = system: HER2:HER3 signaling in JIMT-1 tumors; assay: VeraTag analysis of JIMT-1 tumors; assay type: in vivo, mice
Protocol: Next, samples were paraffin-embedded. Sections of 7 um in thickness were sliced with a microtome (LEICA) and placed on positively charged glass slides (VWR) with serial number labeled. Slides were air-dried for 30 min and then baked in a heated oven set at 60° C. Next samples were processed for different VeraTag analysis. Total HER2 analysis (HT2) according to U.S. Pat. Appl. No. 12/340,436, total HER3 analysis (H3T) according to U.S. Pat. No. 8,349,574; U.S. Pat. Appl. No. 2013/0071859 and finally HER2-HER3 heterodimer (H23D), HER3pY1289 (H3pY1289) and HER3-PI3 kinase (H3PI3K) according to Int′l Patent Appl. No. PCT/US2014/033208.

[3] = system: SK-BR-3 and MCF-7 target cells; assay: ADCC 51Cr release assay; assay type: cell-based, human; conditions: whole blood or PBMC effector cells
Protocol: ADCC activity is an important anti-tumour mechanism of action for therapeutic antibodies in cancer. […] Trastuzumab and a negative control antibody were included as control antibodies in the experiment. Whole blood and PBMC fractions were obtained from healthy donors. Each antibody was tested against the HER2 high (SK-BR-3) and HER2 low (MCF-7) expressing target cells. Target cells were loaded with ^51Cr (Amersham) and opsonized with the indicated concentrations of antibody. Whole-blood or PBMC fraction were used as effector cells in a 200 µL reaction in RPMI 1640 + 10% heat inactivated FCS. Cells were incubated together for 4 h, and lysis was estimated by measuring radioactivity in the supernatant using a Y^- scintillator. Percentage of specific lysis was calculated as follows: (experimental cpm – basal cpm) / (maximal cpm – basal cpm) × 100, with maximal lysis determined in the presence of 5% Triton X-100 and basal lysis in the absence of antibody and effectors.
ADCC activity can be enhanced by different techniques, one of them being the removal of fucose. […] Both antibodies were applied in a serial dilution and a negative control antibody and trastuzumab were included in the assay.

AKT in JIMT-1 tumors = assay: Phosphoprotein analysis of JIMT-1 tumors by Luminex; assay type: in vivo, mice
Protocol: Tumors were flash-frozen and processed to powder. Tumor lysates were prepared to a concentration of 50 mg tumor/mL using cold BioRad Lysis Buffer (supplemented with 0.4% BioRad Factor 1, 0.2% BioRad Factor 2, and 2 mM PMSF) to the frozen powder samples, incubated at 4° C. on a rocker for 60 minutes to ensure complete lysis. The samples were centrifuged at 4° C. for 10 minutes at 16000 × g, and aliquoted. Total protein was determined using the Biorad DC Protein Assay reagents according to manufacturer’s instructions. Luminex Assay: The JIMT-1 tumor lysate samples were processed and analyzed for: Total AKT AKT(Ser473) and AKT(Thr308using commercially available Luminex kits from Millipore (Cat # 48-618MAG (Lot No. 2532050), 46-645MAG (Lot No. 46645 M-1K). Each sample was tested in duplicate. Dilutions were prepared in sample diluent to load a target of approximately 25 µg protein per well for all total and phosphorylated analyte determinations. The Millipore kits were used according to the manufacturer’s specifications.

## PB4188: bispecific HER2xHER3 IgG: HER2 arm MF3958, HER3 arm MF3178
[1]
  HER3 phosphorylation: prolonged inhibition of HER3 phosphorylation
[2]; 25 mg/kg
  Total HER2, HER3 or phosphorylated HER3 in tumors versus controls: no difference
[2]; 25 mg/kg, both dosing regimens
  HER2:HER3 dimers in tumors versus untreated controls: significant PB4188 mediated reduction in HER2:HER3 dimers
[2]; 4H after dosing
  HER3-p85 (PI3K) in tumors versus untreated controls: significant reduction in HER3-p85 (PI3K)
[3]
  ADCC activity: effective at high antibody concentrations
AKT in JIMT-1 tumors; JIMT-1 tumors
  Akt expression in tumors compared to untreated tumors: increase in Akt expression
AKT in JIMT-1 tumors; after two-weekly and four-weekly dose
  Phosphorylation of AKT in tumors: completely inhibited
